# Measured values taken from ChEMBL document CHEMBL1201862, “PubChem BioAssay data set” (2004).
# The source made the active and inactive calls.
# What was measured:
# [1] = Luminescence Cell-Based Dose Confirmation HTS to Identify Inhibitors of Polyadenylation.; assay type: functional
# Cytochrome P450 2C19 = Cytochrome P450 2C19 (Homo sapiens, UniProt P33261); test: Cytochrome panel assay with activity outcomes. Panel member name: p450-cyp2c19 Compounds with AC50 equal or less than 10 uM are considered active; assay type: functional; details: read-out: AC50
# Cytochrome P450 2C19, sequence (P33261 whole entry): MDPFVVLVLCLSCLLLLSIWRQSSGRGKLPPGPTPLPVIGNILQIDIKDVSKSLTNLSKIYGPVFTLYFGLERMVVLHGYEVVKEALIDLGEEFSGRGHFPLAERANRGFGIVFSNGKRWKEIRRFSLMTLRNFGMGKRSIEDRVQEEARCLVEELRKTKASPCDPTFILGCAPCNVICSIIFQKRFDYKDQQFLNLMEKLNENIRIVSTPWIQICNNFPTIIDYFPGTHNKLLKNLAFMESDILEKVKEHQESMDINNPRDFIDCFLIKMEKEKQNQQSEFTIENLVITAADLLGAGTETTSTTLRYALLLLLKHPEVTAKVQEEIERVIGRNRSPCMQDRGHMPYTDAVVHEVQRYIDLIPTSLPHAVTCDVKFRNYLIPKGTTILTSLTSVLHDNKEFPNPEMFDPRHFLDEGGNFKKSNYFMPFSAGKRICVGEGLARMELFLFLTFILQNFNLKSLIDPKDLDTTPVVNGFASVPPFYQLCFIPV
# [2] = molecular target: 5-hydroxytryptamine receptor 1A (Homo sapiens, UniProt P08908); assay type: functional
# 5-hydroxytryptamine receptor 1A, sequence (P08908 whole entry): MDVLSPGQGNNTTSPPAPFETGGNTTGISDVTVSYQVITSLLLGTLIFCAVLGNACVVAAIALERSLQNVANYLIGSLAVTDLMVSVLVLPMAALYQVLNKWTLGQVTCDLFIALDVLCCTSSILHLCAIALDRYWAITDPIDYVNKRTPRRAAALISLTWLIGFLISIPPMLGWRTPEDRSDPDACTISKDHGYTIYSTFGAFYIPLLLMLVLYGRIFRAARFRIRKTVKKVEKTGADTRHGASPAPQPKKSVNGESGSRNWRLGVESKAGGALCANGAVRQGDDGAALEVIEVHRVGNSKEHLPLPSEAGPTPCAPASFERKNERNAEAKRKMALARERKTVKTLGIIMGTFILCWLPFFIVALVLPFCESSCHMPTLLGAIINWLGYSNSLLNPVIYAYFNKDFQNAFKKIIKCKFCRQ
# Estrogen receptor = molecular target: T1, Estrogen receptor (Homo sapiens, UniProt P03372);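 further: potency for inhibiting coactivator peptide recruitment to the receptor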
# T1 sequence (P03372 whole entry): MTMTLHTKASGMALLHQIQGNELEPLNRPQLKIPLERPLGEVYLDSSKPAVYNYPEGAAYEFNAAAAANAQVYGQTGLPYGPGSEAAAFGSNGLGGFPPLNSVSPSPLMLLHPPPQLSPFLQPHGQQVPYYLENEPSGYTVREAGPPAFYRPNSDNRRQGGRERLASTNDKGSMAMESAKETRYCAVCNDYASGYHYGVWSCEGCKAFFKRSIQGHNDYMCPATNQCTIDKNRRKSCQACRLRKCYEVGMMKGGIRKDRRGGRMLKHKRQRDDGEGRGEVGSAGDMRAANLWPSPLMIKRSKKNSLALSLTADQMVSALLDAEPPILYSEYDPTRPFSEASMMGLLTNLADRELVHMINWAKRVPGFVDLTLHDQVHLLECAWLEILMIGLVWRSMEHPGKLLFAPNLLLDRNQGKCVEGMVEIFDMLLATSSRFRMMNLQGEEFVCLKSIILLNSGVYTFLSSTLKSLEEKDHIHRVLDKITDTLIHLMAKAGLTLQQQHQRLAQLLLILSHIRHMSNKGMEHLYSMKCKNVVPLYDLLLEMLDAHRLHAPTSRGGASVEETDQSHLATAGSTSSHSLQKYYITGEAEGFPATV
# Aminopeptidase N = molecular target: T2, Aminopeptidase N (Plasmodium falciparum FcB1/Columbia, UniProt O96935); test: P. falciparum M1AAP inhibitors, biochemical, fluorogenic H-Leu-NHMec substrate, 1536-well (AID 1445); set-up: species or system Plasmodium falciparum 3D7, 3D7
# T2 sequence (O96935 whole entry): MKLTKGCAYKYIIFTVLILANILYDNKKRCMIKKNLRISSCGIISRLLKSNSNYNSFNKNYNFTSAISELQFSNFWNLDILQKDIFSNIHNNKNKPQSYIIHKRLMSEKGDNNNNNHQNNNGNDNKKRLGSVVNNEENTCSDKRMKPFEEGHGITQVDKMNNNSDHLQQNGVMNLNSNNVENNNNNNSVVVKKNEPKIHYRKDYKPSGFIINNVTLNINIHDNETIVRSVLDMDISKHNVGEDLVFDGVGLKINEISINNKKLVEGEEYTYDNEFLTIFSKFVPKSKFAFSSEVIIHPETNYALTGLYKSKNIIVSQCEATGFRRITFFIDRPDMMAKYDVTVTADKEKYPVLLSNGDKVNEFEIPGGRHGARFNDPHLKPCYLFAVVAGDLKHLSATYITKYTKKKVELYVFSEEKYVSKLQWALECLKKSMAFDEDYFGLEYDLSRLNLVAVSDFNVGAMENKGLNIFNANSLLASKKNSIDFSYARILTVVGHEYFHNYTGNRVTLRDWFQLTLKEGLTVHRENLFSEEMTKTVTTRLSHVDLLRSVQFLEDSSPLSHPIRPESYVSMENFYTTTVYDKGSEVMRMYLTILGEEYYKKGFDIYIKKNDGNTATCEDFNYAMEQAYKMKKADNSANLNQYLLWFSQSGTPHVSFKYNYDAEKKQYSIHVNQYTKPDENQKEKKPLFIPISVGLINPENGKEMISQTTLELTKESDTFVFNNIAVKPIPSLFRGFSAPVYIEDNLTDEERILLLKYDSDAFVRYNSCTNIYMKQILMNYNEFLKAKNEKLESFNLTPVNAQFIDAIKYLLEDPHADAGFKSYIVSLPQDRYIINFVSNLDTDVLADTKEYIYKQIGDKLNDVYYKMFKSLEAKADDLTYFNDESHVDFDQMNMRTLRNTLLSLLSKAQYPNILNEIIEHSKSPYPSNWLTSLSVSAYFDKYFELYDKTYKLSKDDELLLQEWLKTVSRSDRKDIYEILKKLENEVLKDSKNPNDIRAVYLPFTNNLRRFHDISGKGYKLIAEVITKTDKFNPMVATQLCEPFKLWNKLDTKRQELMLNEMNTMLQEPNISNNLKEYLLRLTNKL
# [3] = molecular target: T3, Polyadenylate-binding protein 1 (Homo sapiens, UniProt P11940); test: PABP1 MLLE–PAM2 interaction inhibitors, dose response, miRNA deadenylation inhibitor project, biochemical, fluorescence polarization, Cy5-PAM2 peptide, secondary (AID 602260); assay type: functional; details: read-out: IC50_Mean
# T3 sequence (P11940 whole entry): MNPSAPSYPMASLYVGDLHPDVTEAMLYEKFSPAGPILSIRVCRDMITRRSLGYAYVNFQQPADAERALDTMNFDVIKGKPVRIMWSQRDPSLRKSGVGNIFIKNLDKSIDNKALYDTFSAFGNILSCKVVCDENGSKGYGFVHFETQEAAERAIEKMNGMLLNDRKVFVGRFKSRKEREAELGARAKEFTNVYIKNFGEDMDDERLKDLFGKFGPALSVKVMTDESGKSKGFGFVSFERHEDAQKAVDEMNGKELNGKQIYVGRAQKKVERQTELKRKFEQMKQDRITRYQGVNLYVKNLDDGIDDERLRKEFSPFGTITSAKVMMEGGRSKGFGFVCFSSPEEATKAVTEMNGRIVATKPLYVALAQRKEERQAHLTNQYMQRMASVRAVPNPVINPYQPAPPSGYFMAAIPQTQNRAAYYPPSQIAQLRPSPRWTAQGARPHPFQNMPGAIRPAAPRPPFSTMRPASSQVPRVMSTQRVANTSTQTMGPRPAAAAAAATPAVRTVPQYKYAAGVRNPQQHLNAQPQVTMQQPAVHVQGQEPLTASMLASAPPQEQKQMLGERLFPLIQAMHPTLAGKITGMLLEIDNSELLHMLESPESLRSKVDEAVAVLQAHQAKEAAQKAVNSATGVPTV
# Estrogen receptor beta = Estrogen receptor beta (Homo sapiens, UniProt Q92731); test: ERβ–SRC-3 coactivator interaction inhibitors, confirmation, orthogonal assay, biochemical, ELISA, streptavidin-HRP readout (AID 1060)
# Estrogen receptor beta, sequence (Q92731 whole entry): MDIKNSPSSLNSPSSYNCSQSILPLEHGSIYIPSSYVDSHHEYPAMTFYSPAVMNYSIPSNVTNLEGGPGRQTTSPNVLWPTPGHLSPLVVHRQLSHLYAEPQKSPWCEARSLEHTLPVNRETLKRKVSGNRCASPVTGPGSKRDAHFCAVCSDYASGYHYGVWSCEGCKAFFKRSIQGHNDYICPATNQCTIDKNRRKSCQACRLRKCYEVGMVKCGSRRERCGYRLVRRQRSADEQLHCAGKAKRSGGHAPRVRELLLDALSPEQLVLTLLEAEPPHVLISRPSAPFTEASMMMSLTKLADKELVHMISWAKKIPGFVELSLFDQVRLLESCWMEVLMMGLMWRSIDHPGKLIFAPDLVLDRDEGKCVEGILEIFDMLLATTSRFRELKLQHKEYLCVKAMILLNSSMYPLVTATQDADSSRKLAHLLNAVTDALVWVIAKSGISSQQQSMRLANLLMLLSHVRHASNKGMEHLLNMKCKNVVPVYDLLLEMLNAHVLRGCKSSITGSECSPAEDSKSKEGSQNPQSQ
# [4] = molecular target: T4, Zinc finger protein mex-5 (Caenorhabditis elegans, UniProt Q9XUB2); test: MEX-5/TCR-2 RNA interaction inhibitors, dose response, biochemical, C. elegans, fluorescence polarization (AID 1960)
# T4 sequence (Q9XUB2 whole entry): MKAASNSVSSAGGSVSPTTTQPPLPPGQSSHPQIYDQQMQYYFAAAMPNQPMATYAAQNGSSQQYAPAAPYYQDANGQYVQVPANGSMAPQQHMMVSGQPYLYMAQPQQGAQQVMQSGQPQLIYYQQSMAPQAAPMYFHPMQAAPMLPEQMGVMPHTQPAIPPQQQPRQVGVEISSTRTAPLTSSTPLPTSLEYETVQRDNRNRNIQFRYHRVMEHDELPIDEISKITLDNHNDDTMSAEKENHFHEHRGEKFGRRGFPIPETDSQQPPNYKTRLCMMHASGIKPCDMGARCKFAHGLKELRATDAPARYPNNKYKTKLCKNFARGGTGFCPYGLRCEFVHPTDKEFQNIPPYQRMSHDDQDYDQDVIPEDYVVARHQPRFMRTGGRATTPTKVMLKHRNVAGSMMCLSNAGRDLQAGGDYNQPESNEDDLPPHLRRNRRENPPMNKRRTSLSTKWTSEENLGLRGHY
# 14-3-3 protein gamma = 14-3-3 protein gamma (Homo sapiens, UniProt P61981); test: modulators of 14-3-3 gamma client binding – dose response (AID 711); assay type: functional
# 14-3-3 protein gamma, sequence (P61981 whole entry, the tested form may be a part): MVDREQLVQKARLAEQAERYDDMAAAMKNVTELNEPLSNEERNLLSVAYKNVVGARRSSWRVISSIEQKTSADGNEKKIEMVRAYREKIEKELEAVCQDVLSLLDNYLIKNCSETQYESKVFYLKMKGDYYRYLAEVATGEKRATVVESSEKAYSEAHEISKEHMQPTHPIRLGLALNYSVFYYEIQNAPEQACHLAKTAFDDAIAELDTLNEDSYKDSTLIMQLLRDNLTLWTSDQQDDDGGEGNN
# [5] = molecular target: T5, RNA-binding protein pos-1 (Caenorhabditis elegans, UniProt G5EF15); test: inhibitors of POS-1/mex-3 RNA binding, dose response, biochemical, fluorescence polarization (AID 1964);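 further: purified POS-1 fused to maltose binding protein made in E. coli; potency of compounds blocking POS-1 binding to fluorescent RNA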
# T5 sequence (G5EF15 whole entry): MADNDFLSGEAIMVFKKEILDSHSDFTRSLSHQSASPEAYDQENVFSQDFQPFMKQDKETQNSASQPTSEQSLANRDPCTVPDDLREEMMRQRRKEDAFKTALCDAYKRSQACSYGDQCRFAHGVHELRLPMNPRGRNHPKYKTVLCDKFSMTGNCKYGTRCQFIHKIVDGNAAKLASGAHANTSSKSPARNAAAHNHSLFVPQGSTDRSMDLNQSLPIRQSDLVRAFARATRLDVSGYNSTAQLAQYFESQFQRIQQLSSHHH
# [6] = molecular target: T3, Polyadenylate-binding protein 1; test: PABP1 MLLE–PAM2 binding inhibitor potency, dose response, biochemical, fluorescence polarization, FITC-PAM2 peptide (AID 602259); assay type: functional; details: read-out: IC50_Mean
# [7] = molecular target: Nucleotide-binding oligomerization domain-containing protein 2 (Homo sapiens, UniProt Q9HC29); test: NOD2 signaling inhibitors, cell-based, luminescence, uHTS, HEK293 (AID 1566); assay type: functional
# Nucleotide-binding oligomerization domain-containing protein 2, sequence (Q9HC29 whole entry, the tested form may be a part): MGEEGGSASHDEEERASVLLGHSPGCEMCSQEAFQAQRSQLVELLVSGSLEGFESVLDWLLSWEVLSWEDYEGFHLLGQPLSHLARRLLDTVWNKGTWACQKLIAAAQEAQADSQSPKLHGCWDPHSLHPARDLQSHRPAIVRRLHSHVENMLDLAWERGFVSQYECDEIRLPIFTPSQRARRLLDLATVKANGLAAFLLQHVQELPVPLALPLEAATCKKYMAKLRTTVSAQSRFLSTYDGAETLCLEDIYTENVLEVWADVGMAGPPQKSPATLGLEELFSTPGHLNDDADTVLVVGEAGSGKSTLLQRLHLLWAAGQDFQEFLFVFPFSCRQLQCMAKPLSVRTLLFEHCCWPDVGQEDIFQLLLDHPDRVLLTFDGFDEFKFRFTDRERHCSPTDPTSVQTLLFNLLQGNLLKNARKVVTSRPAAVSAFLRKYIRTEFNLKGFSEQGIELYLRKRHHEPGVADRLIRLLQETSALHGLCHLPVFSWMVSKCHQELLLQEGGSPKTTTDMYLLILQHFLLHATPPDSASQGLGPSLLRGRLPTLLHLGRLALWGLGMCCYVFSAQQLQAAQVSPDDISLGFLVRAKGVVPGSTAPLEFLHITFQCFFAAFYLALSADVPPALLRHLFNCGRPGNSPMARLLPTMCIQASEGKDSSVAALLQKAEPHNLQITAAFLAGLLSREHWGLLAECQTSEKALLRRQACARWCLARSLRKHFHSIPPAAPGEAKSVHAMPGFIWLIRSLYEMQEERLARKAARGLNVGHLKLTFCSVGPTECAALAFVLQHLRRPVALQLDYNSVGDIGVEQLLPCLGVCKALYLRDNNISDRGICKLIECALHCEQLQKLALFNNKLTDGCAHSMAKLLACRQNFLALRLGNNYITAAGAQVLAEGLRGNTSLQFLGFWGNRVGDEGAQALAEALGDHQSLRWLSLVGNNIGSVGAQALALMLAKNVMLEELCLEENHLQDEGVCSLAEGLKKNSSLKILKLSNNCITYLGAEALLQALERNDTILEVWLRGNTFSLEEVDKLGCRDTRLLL
# HEK293 [8] = test: cells; assay type: functional, cell-based; details: Homo sapiens
# HEK293 [9] = test: cells; assay type: functional, cell-based; details: Homo sapiens; remark: listed apart in the source
# HEK293 [10] = test: NOD1 signaling inhibitors, primary screen, cell-based, luminescence, uHTS (AID 1578); assay type: functional; details: Homo sapiens
# Galanin receptor type 2 = molecular target: T6, Galanin receptor type 2 (Homo sapiens, UniProt O43603); test: Dose Response cell-based high-throughput screening assay to identify antagonists of galanin receptor 2 (GALR2). [Related pubchem assays: 828, 866 ]; assay type: functional
# T6 sequence (O43603 whole entry): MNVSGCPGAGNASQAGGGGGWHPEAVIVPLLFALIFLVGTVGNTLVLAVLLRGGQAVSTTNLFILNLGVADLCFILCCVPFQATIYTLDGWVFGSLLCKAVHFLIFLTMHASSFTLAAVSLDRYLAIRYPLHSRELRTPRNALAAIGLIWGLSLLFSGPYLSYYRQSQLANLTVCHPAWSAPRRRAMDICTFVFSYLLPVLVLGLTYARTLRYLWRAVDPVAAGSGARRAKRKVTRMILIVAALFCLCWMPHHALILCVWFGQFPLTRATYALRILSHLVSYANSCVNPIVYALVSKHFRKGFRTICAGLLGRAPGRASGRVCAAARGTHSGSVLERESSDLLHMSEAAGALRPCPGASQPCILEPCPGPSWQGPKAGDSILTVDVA
# INS1 = test: beta cell apoptosis inhibitors, cytokine rescue, dose response, luminescence, retest (AID 449756); assay type: functional, cell-based; details: Rattus norvegicus;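 further: cell death triggered by IL-1 beta plus TNF-alpha plus IFN-gamma mixture; protective hits raise ATP signal compared with cytokine alone wells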
# HEK293 [11] = test: NOD2 signaling inhibitors in MDP-stimulated cells, cell-based, uHTS, luminescence (AID 2001); assay type: functional; details: Homo sapiens
# [12] = inhibitors of clade B AD8 Env fusion, dose response, cell-based, cherry-pick (AID 652062); assay type: functional;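 further: luciferase signal from cell-cell fusion driven by HIV-1 clade B AD8 Env; potency is for inhibitors of fusion seen as a drop in luminescence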
# HEK293 [13] = test: cells; assay type: functional, cell-based; details: Homo sapiens; remark: listed apart in the source
# cells [14] = assay type: functional, cell-based
# [15] = inhibitors of SNCA 5'UTR-driven translation, confirmation, luminescence, H4 neuroglioblastoma cells, dose confirmation (AID 2454); assay type: functional, cell-based;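 further: H4 neuroglioblastoma cells carrying an alpha-synuclein 5'UTR luciferase reporter; potency for inhibition of the luciferase signal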
# cells [16] = test: cells
# [17] = inhibitors of firefly luciferase expression or activity, dose response, H4 neuroglioma cells, luminescence (AID 1990); assay type: functional, cell-based
# [18] = cytotoxicity in HEK-293T cells, dose response, cytotoxicity control for TCR NF-kB inhibitor project, luminescence, T-cell screen hits (AID 489026); assay type: functional, cell-based;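 further: cells exposed to compound about 14 hours before the viability readout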
# [19] = inhibitors of SNCA 5'UTR-driven reporter translation, confirmation, H4 neuroglioma cells, luminescence (AID 1988); assay type: functional, cell-based
# [20] = luciferase reporter signal reduction – luminescence, H4-C neuroglioblastoma cells, dose response (AID 2458); assay type: functional, cell-based;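 further: H4 neuroglioblastoma cells stably carrying a luciferase reporter gene fusion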
# [21] = Luminescence-based dose response cell-based high throughput screening assay for cytotoxic compounds using the IEC-6 intestinal epithelial cell line. [Related pubchem assays: 1858 (Summary AID.), 1825 (Counterscreen.), 1907 (Confirmation screen.)]; assay type: functional
# [22] = inhibitors of intracellular T. cruzi replication, confirmation, NIH3T3 host cells, beta-gal luminescence (AID 2044); assay type: functional, cell-based;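 further: intracellular parasites grown in NIH/3T3 mouse fibroblasts as host cells; luminescent beta-galactosidase reporter signal from transgenic T. cruzi replicating inside host cells; inhibitors lower the luminescence signal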
# [23] = Luminescence Cell-Based Dose Retest to Confirm Inhibitors of Cancer Stem Cells. [Related pubchem assays (depositor defined):AID2717, AID2721]; assay type: functional, Homo sapiens; details: Homo sapiens
# [24] = cytotoxicity toward NIH3T3 fibroblasts, dose response, counter-screen, cell-based, ATP luminescence, mouse fibroblasts (AID 2010); assay type: functional;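 further: cells exposed to compound for about 90 hours before reading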
# [25] = Shn3 3'UTR reporter inhibitors, dose response, cell-based, Clone20 osteoblasts, firefly luciferase, cherry-picked (AID 624132); assay type: functional;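 further: firefly luciferase luminescence from reporter carrying the Shn3 3'UTR in osteoblasts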
# [26] = HepG2 cell cytotoxicity, dose response, cytotoxicity control for Shn3 inhibitor project, CellTiter-Glo, cherry-picked (AID 624134); assay type: functional, cell-based
# [27] = control 3'UTR Renilla luciferase suppression, dose response, counter-screen for Shn3 inhibitor project, cell-based, Clone20-Shn3RL, cherry-picked (AID 624133); assay type: functional
compound,measurement,setting,value
Cn1cccc1Cc1nnc(SCC(=O)NCc2ccccc2Cl)n1-c1ccc(F)cc1,EC50,[1],> 120 µM (not active)
CCCCN(CC)Cc1ccc(CNC(=O)Nc2ccc(OC)cc2OC)o1,AC50,Cytochrome P450 2C19,11.2 µM (inconclusive)
same,EC50,[2],> 50 µM (not active)
COc1ccc(N(CC(=O)NC2CCCC2)C(=O)Cn2nnc(-c3ccc(C)cc3)n2)cc1OC,EC50,[2],> 50 µM (not active)
Cc1cc(=O)oc2c(CN3CCC(C)CC3)c(O)c(Cl)cc12,IC50,Estrogen receptor,23.7 µM (active)
same,IC50,Aminopeptidase N,32.7 µM (active)
same,IC50,[3],> 66 µM (inactive)
same,IC50,Estrogen receptor beta,5.23 µM (not active)
same,EC50,[4],> 300 µM (not active)
same,IC50,14-3-3 protein gamma,45.6 µM (not active)
same,EC50,[5],> 300 µM (not active)
same,IC50,[6],37.7 µM (inactive)
O=C(NC(=S)Nc1ccc(NC(=O)c2ccco2)cc1)c1ccccc1,EC50,[1],> 120 µM (not active)
Cc1nc2ccc(NC(=O)c3cc(S(=O)(=O)N(C)c4ccccc4)ccc3Cl)cc2s1,EC50,[7],> 20 µM (inactive)
same,IC50,HEK293 [8],> 20 µM (inactive)
same,IC50,HEK293 [9],> 20 µM (inactive)
same,EC50,HEK293 [10],2.55 µM (active)
same,IC50,Galanin receptor type 2,> 42 µM (not active)
same,AC50,INS1,1.72 µM (active)
same,IC50,HEK293 [11],3.91 µM (inactive)
same,AC50,[12],2.17 µM (active)
same,IC50,HEK293 [13],5.43 µM (active)
CC(=O)O[C@H]1C(=O)[C@@]2(C)C([C@H](OC(=O)c3ccccc3)[C@]3(O)C[C@H](OC(=O)[C@H](O)[C@@H](NC(=O)c4ccccc4)c4ccccc4)C(C)=C1C3(C)C)[C@]1(OC(C)=O)CO[C@@H]1C[C@H]2O (some centres undefined),EC50,cells [14],0.222 µM (active)
same,EC50,[15],0.279 µM (active)
same,EC50,cells [16],< 0.004 µM (active)
same,EC50,[17],< 0.1 µM (active)
same,IC50,[18],> 80 µM (inactive)
same,EC50,[19],< 0.1 µM (active)
same,EC50,[20],0.268 µM (active)
same,IC50,[21],0.0719 µM (active)
same,EC50,[22],< 0.1 µM (active)
Cc1cc(Nc2cccc(Cl)c2)nc(NCc2ccccc2)n1,AC50,[23],5.51 µM (active)
same,EC50,[24],> 60 µM (inconclusive)
same,AC50,[25],1.64 µM (active)
same,IC50,Galanin receptor type 2,> 42 µM (not active)
same,AC50,INS1,3.21 µM (active)
same,AC50,[26],53 µM (active)
same,AC50,[27],6.41 µM (active)
same,EC50,[22],0.177 µM (active)
